# Assay results from US5208145A, “Assay for the presence, in cultured cells, of functional ligand-gated channels, and substances which enhance intracellular lithium accumulation by cultured cells via such channels” (The Salk Institute for Biological Studies, priority 1991, dated 1993).
# Test system: PC12 cells
# Settings: sodium formulated buffer plus 10 μM nicotine, 3H-thymidine incorporation, FIG. 1
# Description: To subculture, these cells were dislodged from the culture dish by pipetting medium across the culture surface, disassociated by vigorous repeat pipetting, and then distributed to new culture dishes containing fresh media. All cells were maintained at 37° C. in a humidified atmosphere supplemented to 5 percent with CO2.
# PC12 cells were distributed to 96 well Costar culture dishes (10^4 cells/well) and the cells were allowed to recover for 24 to 36 hours prior to use. Cells were never allowed to reach confluency. To conduct a lithium-flux experiment, the culture medium was removed and gently replaced with flux-buffer composed of 1.8 mM CaCl2, 25 mM glucose, 10 mM HEPES (pH 7.4), and 115 mM in either sodium chloride or lithium chloride. Each buffer was filter sterilized and supplemented with agonist, antagonist, or both, as described for the experiment being conducted. […] For PC12 cells, culture was then continued as usual for 6 hours before quantitating ^3 H-thymidine incorporation. […]
# To determine the incorporation of ^3 H-thymidine into fluxed cells, dishes were frozen at -70°, thawed, and the DNA from each well was collected on glass filters using a Cambridge PhD cell harvester. […] Glass filters were dried, resuspended in Ecolume (ICN) scintillation cocktail, and counted in an LKB Wallace 2010 scintillation counter at 34 percent efficiency.
smiles,measurement,value
CN1CCCC1c1cccnc1 (stereo not shown) [nicotine],effect of the presence of nicotine on cell cycle time of PC12 cells,does not alter the cell cycle time of PC12 cells
